Data reported in paper PMC6896740, “Safety, tolerability, pharmacokinetics, and pharmacodynamics of PF-06650833, a selective interleukin-1 receptor-associated kinase 4 (IRAK4) inhibitor, in single and multiple ascending dose randomized phase 1 studies in healthy subjects” (Arthritis Research & Therapy, 2019).

Test: clinical
Settings: human, in vivo; for AUC(0-t): AUClast; for Tmax: median (range); for Vd/F: Vz/F
Description: Study 1 (B7921001; NCT02224651) was a 96-day, phase 1, within-cohort, randomized, double-blind, sponsor-open, placebo-substitution, five-period crossover, SAD study in healthy adult subjects (Fig. 1a). Subjects were sequentially enrolled into four cohorts of ten subjects each. Within each cohort, the subjects were randomized into a maximum of five periods. Within each period, eight subjects and two subjects were randomized to receive PF-06650833 and placebo, respectively. In this placebo-substitution design, all subjects within a cohort received one or more doses of PF-06650833 and/or placebo. Single oral doses of PF-06650833 IR formulations from 1 to 6000 mg, and MR formulations from 30 to 300 mg, were administered in fasted (overnight fast of ≥ 10 h) and/or fed (high-fat breakfast meal) states. Doses were escalated sequentially by period within each cohort (see Fig. 1a for final dosing scheme), based upon the evaluation of ≥ 48 h of safety and tolerability for all subjects and ≥ 8 h of PK data for at least six subjects receiving PF-06650833 and one subject receiving placebo. Dose escalation was to cease when either the limits of safety and/or tolerability were reached, the projected exposure at the subsequent dose exceeded the toxicokinetic limit (TK) established based on the no observable adverse effect level (NOAEL) in relevant animal studies, or a plateau in exposure was reached.
The effects of food on the plasma PK profile of the IR and MR formulations were explored in cohorts 1 and 3, respectively, by administering 30 mg doses of PF-06650833 in a fasted state and after a high-fat meal. A 1000-mg dose of the IR formulation was also tested in cohort 3 in an attempt to identify a maximum tolerated dose (MTD). Since TK limits were not reached with the IR formulation at doses up to 1000 mg, the IR doses were escalated to 2000 and 6000 mg with a high-fat meal in cohort 4 (Fig. 1a).
For both studies, samples of blood (and urine in study 2) were taken for evaluation of PK/PD parameters (see Additional file 1: Supplemental Methods). PK samples were obtained at the nominal time relative to dosing (± 10%). Plasma and urine samples were analyzed using validated, sensitive, and specific liquid chromatography tandem mass spectrometric methods (at Pfizer Inc., Groton, CT, USA, for study 1 and at Worldwide Pharmacokinetics, Dynamics and Metabolism, Cambridge, MA, USA, for study 2). The lower limit of quantification for PF-06650833 in plasma was 0.0500 ng/mL. The lower limit of quantification for PF-06650833 in urine was 1.00 ng/mL. Serum samples were also analyzed for hsCRP, and plasma samples were analyzed for 4β-hydroxycholesterol and cholesterol.
PK parameters were calculated using non-compartmental analysis of concentration-time data. For study 1 only, data from cohort 1 (period 4 [IR 30 mg] versus period 5 [IR 30 mg + food]) and cohort 3 (period 2 [MR 30 mg] versus period 3 [MR 30 mg + food]) were used to estimate the effect of food intake. Cmax and AUC were calculated for each subject and treatment, with and without food, after which a within-subject difference could be found between fed (high-fat meal) and fasted doses. Analysis of covariance was used to model these within-subject differences and to calculate 95% confidence intervals (CIs) for the differences for each dose (IR 30 mg and MR 30 mg). For study 2 only, the amounts of PF-06650833 in urine and renal clearance were listed and summarized descriptively. As part of the routine safety laboratory monitoring, the presence of any atypical crystals in urine specimens was semi-quantitatively assessed microscopically by typical histopathologic methods and scored as numbers of crystals per high power field (hpf); higher abundance (moderate or many) was defined as ≥ 15/hpf. No formal interim analyses were conducted.
4 In both studies, subjects were assigned to dose groups according to a pre-defined
5 randomization schedule. Each subject was given a unique Electronic Data Capture […]

## CC[C@@H]1[C@H](F)C(=O)N[C@@H]1COc1nccc2cc(C(N)=O)c(OC)cc12 [PF-06650833, 1-{[(2S,3S,4S)-3-Ethyl-4-fluoro-5-oxopyrrolidin-2-yl]methoxy}-7-methoxyisoquinoline-6-carboxamide]
  Mean terminal half-life t½: 9.4 to 11.7 h
1 mg
  CL/F, geometric mean (%CV): 194.3 (37) L/h
  Tmax: 1 h
1 mg, AUCinf, geometric mean (%CV)
  AUC(0-inf): 5.14 ng·h/mL
1 mg, geometric mean (%CV)
  AUC(0-t): 4.92 ng·h/mL
  Cmax: 1.75 ng/mL
  Vd/F: 517 L
1 mg, mean ± SD
  MRT: 3.12 ± 0.525 h
1 mg, t½, mean ± SD
  half-life: 1.86 ± 0.24 h
3 mg
  CL/F, geometric mean (%CV): 173.1 (49) L/h
  Tmax: 0.525 h
3 mg, AUCinf, geometric mean (%CV)
  AUC(0-inf): 17.3 ng·h/mL
3 mg, geometric mean (%CV)
  AUC(0-t): 17 ng·h/mL
  Cmax: 5.54 ng/mL
  Vd/F: 567 L
3 mg, mean ± SD
  MRT: 3.4 ± 0.622 h
3 mg, t½, mean ± SD
  half-life: 2.34 ± 0.67 h
10 mg
  CL/F, geometric mean (%CV): 121.0 (48) L/h
  Tmax: 1 h
10 mg, AUCinf, geometric mean (%CV)
  AUC(0-inf): 82.7 ng·h/mL
10 mg, geometric mean (%CV)
  AUC(0-t): 81.9 ng·h/mL
  Cmax: 22.6 ng/mL
  Vd/F: 618 L
10 mg, mean ± SD
  MRT: 4.31 ± 0.787 h
10 mg, t½, mean ± SD
  half-life: 3.54 ± 0.139 h
30 mg
  AUCinf (food-effect analysis): 211.3 ng·h/mL
  AUCinf, geometric mean (%CV): 206.4 (29) ng•h/mL
  AUClast, geometric mean (%CV): 203.7 (29) ng•h/mL
30 mg, AUCinf (food-effect analysis)
  AUC(0-inf): 261 ng·h/mL
30 mg, AUCinf, geometric mean (%CV)
  AUC(0-inf): 263 ng·h/mL
30 mg, geometric mean (%CV)
  AUC(0-t): 249 ng·h/mL
100 mg
  AUCinf, geometric mean (%CV): 646.4 (48) ng•h/mL
  AUClast, geometric mean (%CV): 549.4 (38) ng•h/mL
  MRT, mean ± SD: 11.2 ± 4.81 h
  t½, mean ± SD: 15.0 ± 5.22 h
100 mg, AUCinf, geometric mean (%CV)
  AUC(0-inf): 839 ng·h/mL
100 mg, geometric mean (%CV)
  AUC(0-t): 762 ng·h/mL
100 mg, mean ± SD
  MRT: 19.3 ± 5.73 h
100 mg, t½, mean ± SD
  half-life: 9.35 ± 3.62 h
300 mg
  AUCinf, geometric mean (%CV): 1477 (71) ng•h/mL
  AUClast, geometric mean (%CV): 1436 (57) ng•h/mL
  Tmax, median (range): 2 (0.500–2.00) h
  Vz/F, geometric mean (%CV): 5310 (69) L
  t½, mean ± SD: 19.9 ± 9.54 h
  Tmax: 4 h
300 mg, AUCinf, geometric mean (%CV)
  AUC(0-inf): 2040 ng·h/mL
300 mg, geometric mean (%CV)
  AUC(0-t): 1970 ng·h/mL
  Vd/F: 6820 L
300 mg, t½, mean ± SD
  half-life: 38.8 ± 21.1 h
1000 mg
  CL/F, geometric mean (%CV): 411.4 (40) L/h
  Tmax: 0.75 h
1000 mg, AUCinf, geometric mean (%CV)
  AUC(0-inf): 2430 ng·h/mL
1000 mg, geometric mean (%CV)
  AUC(0-t): 2270 ng·h/mL
  Cmax: 309 ng/mL
  Vd/F: 14600 L
1000 mg, mean ± SD
  MRT: 18.7 ± 4.37 h
1000 mg, t½, mean ± SD
  half-life: 44.9 ± 69.6 h
Mean terminal half-life t½
  half-life: 10.2 to 15 h
